In patent publication US8314123B2, “5, 6, or 7-substituted -3-(hetero) arylisoquinolinamine derivatives and therapeutic use thereof” (Rexahn Pharmaceuticals, Inc., priority 2006, dated 2012):

Experiments:
Type in all cases: cell-based
[1] = test system: OVCAR-3 (ovary); assay: In vitro cell proliferation assay (SRB), OVCAR3; details: Homo sapiens, SRB method, 96 hours, read-out: Inhibition of cell growth (IC50, μM) OVCAR3
Description: (§1) Cancer cell lines to determine the effect of 5, 6, or 7-substituted-3-(hetero)arylisoquinolinamine compounds were obtained from the following sources: Human MDA-MB-231 (breast), PC3 (prostate), HCT-15 (colon), HCT116 (colon), OVCAR-3 (ovary), Caki-1 (kidney), PANC-1 (pancreas), SNB-19 (glioblastoma) and SK-MEL-28 (melanoma) from the American Type Culture Collection (ATCC) (Manassas, Va.). PC3, OVCAR-3, SK-MEL-28 and SNB-19 were grown in RPMI1640 medium (Invitrogen, Carlsbad, Calif.) supplemented with 10% fetal bovine serum (“FBS”), 1 mM sodium pyruvate, 10 mM HEPES and 100 U/ml penicillin and 100 μg/ml streptomycin (“P/S”). MDA-MB-231, Caki-1, HCT-15 (colon) and PANC-1 cells were maintained in Dulbecco's modified Eagle's medium (“DMEM”, Invitrogen) supplemented with 10% FBS, P/S and 10 mM HEPES. HCT116 cells were maintained in DMEM supplemented with 10% FBS, P/S and 10 mM HEPES for in vitro cell proliferation assay and in RPMI1640 medium supplemented with 10% FBS, 1 mM sodium pyruvate, 10 mM HEPES and P/S for in vitro cell cycle analysis. All cells were incubated at 37° C. under humidified 5% CO2.
(§2) The growth inhibition of the 5, 6, or 7-substituted-3-(hetero)arylisoquinolinamine derivatives against a variety of human tumor cells was evaluated to study the relative importance of particular substituent groups on the compounds. The 5, 6, or 7-substituted-3-(hetero)arylisoquinolinamine derivatives, prepared as described above, were tested with DMSO as a control.
(§3) The growth inhibition assay of representative 5, 6, or 7-substituted-3-(hetero)arylisoquinolinamine derivatives against human tumor cell lines was performed using the Sulforhodamine B (“SRB”) method (Skehan et al., J. National Cancer Institute, 82: 1107-1112 (1990)). Briefly, exponentially growing tumor cells were seeded into a 96-well plate at a density of 2-3×10^3 cells/well and treated with 5, 6, or 7-substituted-3-(hetero)arylisoquinolinamine compounds the next day. Triplicate wells were used for each treatment. The cells were incubated with the various compounds for 96 hours at 37° C. in a humidified 5% CO2 atmosphere. After 96-hour incubation, cells were fixed with 10% trichloroacetic acid (“TCA”), incubated for 1 hour at 4° C., and washed 3 times with tap water. Subsequently, cells were stained with 0.4% sulforhodamine B in 1% acetic acid for 30 minutes, washed 4 times with 1% acetic acid, and air-dried again. After 5 minutes agitation in 10 mM Tris solution, the absorbance of each well was measured at 530 nm using Benchmark Plus Microplate reader (Bio-Rad Laboratories, Hercules, Calif.).
(§4) To translate the OD530 values into the number of live cells in each well, the OD530 values were compared to those on standard OD530-versus-cell number curves generated for each cell line. The percent survival was calculated using the formula: % Survival=live cell number [test]/live cell number [control]×100
(§5) The IC50 values were calculated by non-linear regression analysis.

[2] = test system: human cancer cell lines; assay: Growth inhibition against the panel of human tumor cell lines (SRB), overall statements; details: Table 3 cell lines
Description: as §1, §2, §3, §4, §5
Using QSAR and medicinal chemistry techniques, a large number of compounds, including the compounds shown in Table 1-2 above, were synthesized. The synthesized compounds were screened against at least four cancer cell lines, PANC-1, MDA-MB-231, HCT116 and Caki-1, at approximately 1 μM concentration. Compounds showing activity in at least one of these cell lines were selected for further screening. From these compounds, thirty compounds were selected for further evaluation as broad-spectrum anti-proliferative agents as shown in the following Table 3.

[3] = test system: Caki-1 (kidney); assay: In vitro cell proliferation assay (SRB), Caki-1; details: Homo sapiens, SRB method, 96 hours, read-out: Inhibition of cell growth (IC50, μM) Caki-1
Description: as §1, §2, §3, §4, §5

[4] = test system: SNB-19 (glioblastoma); assay: In vitro cell proliferation assay (SRB), SNB19; details: Homo sapiens, SRB method, 96 hours, read-out: Inhibition of cell growth (IC50, μM) SNB19
Description: as §1, §2, §3, §4, §5

[5] = test system: SK-MEL-28 (melanoma); assay: In vitro cell proliferation assay (SRB), SK-MEL-28; details: Homo sapiens, SRB method, 96 hours, read-out: Inhibition of cell growth (IC50, μM) SK-MEL-28
Description: as §1, §2, §3, §4, §5

[6] = test system: MDA-MB-231 (breast); assay: In vitro cell proliferation assay (SRB), MDA-MB-231; details: Homo sapiens, SRB method, 96 hours, read-out: Inhibition of cell growth (IC50, μM) MDA-MB-231
Description: as §1, §2, §3, §4, §5

[7] = test system: HCT116 (colon); assay: In vitro cell proliferation assay (SRB), HCT116; details: Homo sapiens, HCT-116; SRB method, 96 hours; Table 3; read-out: Inhibition of cell growth (IC50, μM) HCT116
Description: as §1, §2, §3, §4, §5

[8] = test system: PC3 (prostate); assay: In vitro cell proliferation assay (SRB), PC3; details: Homo sapiens; SRB method, 96 hours; read-out: Inhibition of cell growth (IC50, μM) PC3
Description: as §1, §2, §3, §4, §5

[9] = test system: PANC-1 (pancreas); assay: In vitro cell proliferation assay (SRB), PANC-1; details: Homo sapiens, SRB method, 96 hours, read-out: Inhibition of cell growth (IC50, μM) PANC-1
Description: as §1, §2, §3, §4, §5

SMILES | IC50 [1] | activity in growth inhibition of human cancer cell compared to Compound 23 [2] | IC50 [3] | IC50 [4] | IC50 [5] | IC50 [6] | IC50 [7] | IC50 [8] | IC50 [9]
COc1cc(OC)cc(-c2cc3ccc(N(C)C)cc3c(N)n2)c1.Cl [Compound 16, 3-(3,5-Dimethoxyphenyl)-N^7,N^7-dimethylisoquinoline-1,7-diamine hydrochloride] | 0.025 µM | equal or better activity | 0.038 µM | 0.057 µM | 0.045 µM | 0.027 µM | 0.029 µM | 0.048 µM | 0.026 µM
COc1cccc(-c2cc3cc(N(C)C)ccc3c(N)n2)c1 [Compound 21, 3-(3-Methoxyphenyl)-N^6,N^6-dimethyl-isoquinoline-1,6-diamine] | 0.071 µM | equal or better activity | 0.068 µM | 0.094 µM | 0.11 µM | 0.059 µM | 0.064 µM | 0.19 µM | 0.11 µM
COc1cccc(-c2cc3cc(C)ccc3c(N)n2)c1 [Compound 25, 3-(3-Methoxyphenyl)-6-methylisoquinolin-1-amine] | 0.18 µM | equal or better activity | 0.13 µM | 0.29 µM | 0.34 µM | 0.14 µM | 0.19 µM | 0.25 µM | 0.31 µM
Cc1ccc2c(N)nc(-c3ccc4c(c3)OCO4)cc2c1 [Compound 28, 3-(Benzo[d][1,3]dioxol-6-yl)-6-methylisoquinolin-1-amine] | 0.16 µM | equal or better activity | 0.11 µM | 0.23 µM | 0.22 µM | 0.13 µM | 0.16 µM | 0.19 µM | 0.22 µM
COc1ccc(-c2cc3cc(C)ccc3c(N)n2)c(C)c1 [Compound 31, 3-(4-Methoxy-2-methylphenyl)-6-methylisoquinolin-1-amine] | 0.17 µM | equal or better activity | 0.12 µM | 0.28 µM | 0.29 µM | 0.15 µM | 0.17 µM | 0.25 µM | 0.24 µM
Cc1ccc2c(N)nc(-c3c(C)cccc3C)cc2c1 [Compound 34, 6-Methyl-3-(2,6-dimethylphenyl)isoquinolin-1-amine] | 0.16 µM | equal or better activity | 0.12 µM | 0.24 µM | 0.23 µM | 0.14 µM | 0.17 µM | 0.24 µM | 0.21 µM
Cc1ccc(-c2cc3cc(C)ccc3c(N)n2)cc1 [Compound 36, 6-Methyl-3-p-tolylisoquinolin-1-amine] | 0.15 µM | equal or better activity | 0.16 µM | 0.21 µM | 0.25 µM | 0.15 µM | 0.18 µM | 0.22 µM | 0.2 µM
COc1ccc(-c2cc3ccc(C)cc3c(N)n2)c(C)c1 [Compound 42, 3-(4-Methoxy-2-methylphenyl)-7-methylisoquinolin-1-amine] | 0.13 µM | equal or better activity | 0.065 µM | 0.2 µM | 0.21 µM | 0.079 µM | 0.12 µM | 0.2 µM | 0.18 µM
Cc1ccc2cc(-c3ccc4c(c3)OCO4)nc(N)c2c1 [Compound 45, 3-(Benzo[d][1,3]dioxol-6-yl)-7-methylisoquinolin-1-amine] | 0.23 µM | equal or better activity | 0.13 µM | 0.38 µM | 0.42 µM | 0.15 µM | 0.18 µM | 0.25 µM | 0.37 µM
Cc1ccc2cc(-c3ccccc3C)nc(N)c2c1 [Compound 48, 7-Methyl-3-o-tolylisoquinolin-1-amine] | 0.1 µM | equal or better activity | 0.14 µM | 0.16 µM | 0.18 µM | 0.075 µM | 0.12 µM | 0.26 µM | 0.2 µM
COc1ccc(C)c(-c2cc3ccc(C)cc3c(N)n2)c1 [Compound 50, 3-(5-Methoxy-2-methylphenyl)-7-methyl-isoquinolin-1-amine] | 0.042 µM | equal or better activity | 0.047 µM | 0.052 µM | 0.051 µM | 0.03 µM | 0.042 µM | 0.07 µM | 0.058 µM
COc1cccc(-c2cc3cc(OC)c(OC)cc3c(N)n2)c1 [Compound 52, 6,7-Dimethoxy-3-(3-methoxyphenyl)isoquinolin-1-amine] | 0.074 µM | equal or better activity | 0.17 µM | 0.22 µM | 0.23 µM | 0.14 µM | 0.16 µM | 0.18 µM | 0.19 µM
